Laboratory results taken from patent US9161533B2, “Plant pathogen resistance” (priority 2007, dated 2015).
Entries after “also recorded” stand apart in the source; their conditions may differ.

How the values were obtained:
Type in all cases: in vivo, Arabidopsis
defense-related genes = test: Defense-related gene expression after azelaic acid treatment (mini array, RT-PCR)
Protocol: (§1) (A) Time course of free and total salicylic acid levels in leaves of Col after spray treatments with 5 mM MES (black bars) and 1 mM azelaic acid in 5 mM MES (white bars). (B) Camalexin levels in leaves of Col after azelaic acid treatment by spraying. Each experiment in (A) and (B) was performed with three different samples and the experiments were repeated three times. (C) Expression of an LTP gene (At2g38530) was elevated after azelaic acid treatment performed as in (A), however expression of PR1 and many other defense-related genes was unaffected. RT-PCR (23 cycles) was used to assess gene expression, with EF1a serving as a loading control.
(§2) Since resistance to P. syringae requires activation of SA-dependent defenses accompanied by elevated endogenous SA levels, it was investigated whether azelaic acid directly induces SA accumulation. […] Additionally, the levels of the phytoalexin Camalexin, a defense metabolite, were similar in azelaic acid-treated and mock-treated plants (FIG. 5B). […] To investigate whether azelaic acid might affect additional defense markers, expression of defense-related genes was monitored using a mini array. […] RT-PCR confirmed that At2g38530 was induced by azelaic acid. However, PR1, a SA signaling marker, was not induced by azelaic acid. Thus, azelaic acid appears not to induce large changes in known signaling pathways activated by P. syrinagae, but does induce at least one defense-related gene.

plant cell = test: Toxicity of azelaic acid to plant cell; settings: 1 mM in 5 mM MES (pH 5.6)
Protocol: (§3) Biological activity of azelaic acid in inducing disease resistance. 1 mM azelaic acid was infiltrated into leaves 3 and 4 of 3-week old plants. Two days later, plants were inoculated with virulent PmaDG3 onto leaves 3 and 4 or in the upper leaves, which were not pre-treated with azelaic acid (systemic leaves). Azelaic acid (1 mM) dissolved in 5 mM MES (pH 5.6) was not toxic to plant cell. […] Mock-treated and azelaic acid-treated plants were also infiltrated with avirulent derivatives of P. syringae pv. maculicola carrying avrRpt2 (PmaDG6) or avrRpm1 (PmaDG34).

[1] = test system: PmaDG6 (PmaDG3 carrying avrRpt2); test: Growth of avirulent PmaDG6 in azelaic acid-pretreated leaves; settings: 1 mM pretreatment
Protocol: (§4) (A) Local and systemic resistance response by azelaic acid treatment against virulent PmaDG3 infections. Local or systemic leaves of 21˜23-day-old plants were treated with 5 mM MES (pH 5.6) (black bars) or 1 mM azelaic acid in 5 mM MES (pH 5.6, white bars) 2 days prior to challenge with the virulent PmaDG3 strain (OD600=0.0001). MES and azelaic acid were introduced into leaves by syringe-infiltration. […] (B) Growth of avirulent strains PmaDG6 (PmaDG3 carrying avrRpt2) and PmaDG34 (PmaDG3 carrying avrRpm1) in leaves of Col pretreated with 5 mM MES (black bars) or 1 mM azelaic acid in 5 mM MES (pH 5.6, white bars). (C) Twenty three-day-old plants were pretreated with 1, 10, 100, and 1000 μM azelaic acid in 5 mM MES or 5 mM MES for 2 days and then subjected to infection with virulent PmaDG3 at OD600=0.0001. […] (D) Plants were treated with 5 mM MES or 1 mM azelaic acid for the indicated times prior to inoculation with virulent PmaDG3. Inoculations with PmaDG3 were performed between noon and 1 pm. Azelaic acid (Aza) in 5 mM MES was applied to plants using a hand-sprayer. The growth of bacteria was measured on day 3 after inoculation. […] (E) Plants were treated and infected as in (D), except that infections were performed between […]. (*p<0.04). These experiments were repeated two to four times to confirm reproducibility.
Biological activity of azelaic acid in inducing disease resistance. […]

virulent PmaDG3 = test: Azelaic acid-induced resistance against virulent PmaDG3 infection
Protocol: as §4
1 mM azelaic acid in 5 mM MES was applied to wild-type Col, SAR-defective, and SA-deficient mutants (A) and jasmonic acid/ethylene-insensitive mutants (B) 2 days prior to challenge-inoculation of virulent PmaDG3 (OD600=0.0001). […] The experiments were repeated a minimum of three times. The number of asterisks indicates samples that were different from one another at given levels of statistical significance (*p<0.05, **p<0.01).
as §3
PmaDG3 growth was measured after spray treatment of plants with various concentrations of azelaic acid. […] It was also tested whether azelaic acid required a certain induction period for the induced resistance response. […] However, when plants were grown in the dark for 12 hours after treatment, azelaic acid was ineffective at conferring disease resistance (FIG. 3E). […] Thus, azelaic acid induces a light-dependent disease resistance response against infection with P. syringae that is also concentration- and time-dependent.
To further characterize how plants regulate azelaic acid-induced resistance, 1 mM azelaic acid was sprayed onto wild type and several mutant plants 2 days before infection with virulent PmaDG3 and bacterial growth was measured. Unlike wild-type plants, the SA pathway mutants tested were susceptible to virulent PmaDG3 infection regardless of treatment with azelaic acid (FIG. 4A). […] Pathogen resistance was also dependent on […], which is important for SA-induced disease resistance and SAR maintenance in Arabidopsis. The growth of bacteria was also monitored in leaves of JA- and ethylene-insensitive mutants, jar1 and etr1, following treatment with 1 mM azelaic acid.

[2] = test system: salicylic acid and camalexin levels; test: Endogenous salicylic acid and camalexin levels after azelaic acid spray; settings: 1 mM spray, no infection, vs mock
Protocol: as §1
as §2, with “Thus, azelaic acid appears not to induce large changes in known signaling pathways activated by P. syrinagae, but does induce at least one defense-related gene.” left out

PR1 expression = test: Priming of PR1 expression after virulent PmaDG3 infection; settings: 1 mM spray 2 days before PmaDG3 (OD600=0.01); vs mock
Protocol: (§5) Five mM MES or 1 mM azelaic acid in 5 mM MES were applied to leaves of wild-type Col Arabidopsis 2 days prior to inoculation of 10 mM MgSO4 (M), virulent PmaDG3 (V) and avirulent PmaDG6 expressing AvrRpt2 (Av). Leaves were collected at different times after inoculation and endogenous free and total SA level was measured. (B) Relative PR1 expression in leaves of mock-treated plants and azelaic acid-treated plants after virulent PmaDG3 infection. The expression of PR1 is plotted on a log scale. The number of asterisks indicates samples that were different from one another at given levels of statistical significance (*p<0.075, **p<0.05, ***p<0.01).
Since SA signaling mutants were compromised in responding to azelaic acid, it was investigated whether azelaic acid might prime SA synthesis or SA-dependent defense responses in plants. To test this, plants were sprayed with 1 mM azelaic acid (or 5 mM MES) and after two days infected with virulent PmaDG3 and avirulent PmaDG6 (carrying avrRpt2) (OD600=0.01). […] The priming effect by azelaic acid was also investigated by analyzing PR1 expression, a molecular marker for SA signaling (FIG. 6B). Mock- and azelaic acid-treated plants were infected with virulent PmaDG3 (OD600=0.01) 2 days after spray treatments. PR1 expression was increased in both azelaic acid treated and untreated plants after infection with the virulent strain. […]

[3] = test system: SA-dependent defense signaling; test: Priming of SA accumulation after Pseudomonas syringae infection
Protocol: as §5
Since SA signaling mutants were compromised in responding to azelaic acid, it was investigated whether azelaic acid might prime SA synthesis or SA-dependent defense responses in plants. To test this, plants were sprayed with 1 mM azelaic acid (or 5 mM MES) and after two days infected with virulent PmaDG3 and avirulent PmaDG6 (carrying avrRpt2) (OD600=0.01). […] The priming effect by azelaic acid was also investigated by analyzing PR1 expression, a molecular marker for SA signaling (FIG. 6B). Mock- and azelaic acid-treated plants were infected with virulent PmaDG3 (OD600=0.01) 2 days after spray treatments. PR1 expression was increased in both azelaic acid treated and untreated plants after infection with the virulent strain. However, the expression was higher in leaves pretreated with azelaic acid after pathogen infection, compared with expression in mock-treated plants following pathogen infection (note the log scale in FIG. 6B).

O=C(O)CCCCCCCC(=O)O [azelaic acid]
At2g38530 expression by RT-PCR (defense-related genes; RT-PCR): elevated; also recorded: induced | PR1 expression (defense-related genes; azelaic acid alone, no infection): unaffected; also recorded: not induced | induction of LTP gene At2g38530 (defense-related genes; mini array): 3 fold | expression of most defense-related genes (defense-related genes; mini array, vs mock): unaffected; also recorded: no difference in expression | toxicity to plant cell (plant cell): not toxic | growth of PmaDG6 [1]: reduction in the growth | resistance, pretreatment 12 hours prior to pathogen challenge (virulent PmaDG3; 1 mM hand sprayer, light): low level of resistance | resistance, pretreatment 6 hours prior to infection (virulent PmaDG3; 1 mM hand sprayer, plants grown in the light): still susceptible | disease symptoms (virulent PmaDG3; 1 mM infiltrated 2 days before PmaDG3 challenge): significant reduction in the disease symptoms; also recorded: very little disease symptom development | growth of PmaDG3 (virulent PmaDG3; 1 mM infiltrated 2 days before challenge, local and systemic leaves): reduction in pathogen growth; also recorded: significantly reduced | protection, inoculation 48 h after spraying (virulent PmaDG3; 1 mM spray): Significant protection | disease resistance, plants in the dark for 12 hours after treatment (virulent PmaDG3; 1 mM spray, dark): ineffective | resistance to PmaDG3 in SAR-defective / SA pathway mutants (virulent PmaDG3; 1 mM sprayed 2 days before infection): did not induce plant resistance; also recorded: susceptible | resistance in jar1 and etr1 mutants (virulent PmaDG3; 1 mM, JA- and ethylene-insensitive mutants): did not affect; also recorded: effective in restricting bacterial growth | bacterial growth (virulent PmaDG3; 1 or 10 μM vs 5 mM MES): no difference in bacterial growth | suppression of bacteria growth (virulent PmaDG3; 100 and 1000 μM pretreatment): 10 fold | resistance to PmaDG3 / growth of bacteria (virulent PmaDG3; 100 and 1000 μM pretreatment for 2 days): significant reduction of the growth of bacteria; also recorded: resistant to PmaDG3 | Camalexin levels [2]: does not affect; also recorded: similar | free and total SA level [2]: does not affect; also recorded: no significant difference | PR1 expression after pathogen infection (PR1 expression): higher | levels of free SA ([3]; 1 mM spray 2 days before, 6 and 18 hrs after virulent PmaDG3 infection, vs mock, p<0.05): significantly higher | total SA accumulation ([3]; 18 hrs after inoculation with both PmaDG3 and PmaDG6, vs mock, p<0.01): higher level | levels of free SA ([3]; after infection with PmaDG6 (carrying avrRpt2)): not statistically significant | Endogenous free and total SA levels during Pseudomonas syringae infections ([3]; vs mock-treated plants): significantly higher
